Assay results from ChEMBL document CHEMBL2150849, “Sesquiterpenoids from the mangrove-derived endophytic fungus Diaporthe sp” (J Nat Prod, 2012).
Calls of active or inactive are those of the source.

Assays:
Format in all cases: functional, cell-based
QGY7701 = assay: Cytotoxicity against human QGY7701 cells at 20 uM by MTT assay
SGC-7901 = assay: Cytotoxicity against human SGC7901 cells at 20 uM by MTT assay
MCF7 = assay: Cytotoxicity against human MCF7 cells at 20 uM by MTT assay
A549 = assay: Cytotoxicity against human A549 cells at 20 uM by MTT assay

Measured: Activity

CC1(C)CC(=O)C[C@]2(C)[C@@H](CO)[C@](C)(O)CC[C@@H]12
inactive: all assays above

CC1(C)C(=O)CC[C@]2(C)[C@@H](CO)[C@](C)(O)CC[C@@]12O
inactive: all assays above

CC1=C(CO)[C@@]2(C)C[C@@H](O)CC(C)(C)[C@@H]2CC1=O
inactive: all assays above

CC(C)(O)[C@]12CCC3=C(COC3=O)[C@@]1(C)CCC(=O)O2
inactive: all assays above

CC1=C(CO)[C@@]2(C)CCC[C@@](C)(CO)[C@@H]2CC1=O
inactive: all assays above

CC1(C)[C@@H](O)CC[C@]2(C)C3=C(CC[C@@H]12)C(=O)OC3
inactive: all assays above

CC1(C)CCC[C@]2(C)[C@@H](C(=O)O)[C@](C)(O)CC[C@@H]12
inactive: all assays above

C[C@]1(CO)CCC[C@]2(C)[C@@H](CO)[C@](C)(O)CC[C@@H]12
inactive: all assays above

CC1=C(CO)[C@@]2(C)CCCC(C)(C)[C@@H]2C[C@H]1O
inactive: all assays above

CC1=C(CO)[C@@]2(C)CC[C@H](O)C(C)(C)[C@@H]2CC1=O
inactive: all assays above

CC1=C[C@@H]2C[C@H](C)C[C@H](C)[C@H]2[C@](C)(C(=O)CCO)[C@@H]1C(=O)O
inactive: all assays above
